Non-standard residues stand in square brackets, D forms with d. Residues, ends and D or L forms follow the SMILES beside them. 2Nal = N[C@@H](Cc1ccc2ccccc2c1)C(=O)O; Sta = CC(C)C[C@H](N)[C@@H](O)CC(=O)O
Target: Cathepsin D (Homo sapiens, UniProt P07339)
Test: Assay 3: cathepsin D inhibition activity (non-cellular assay, chromogenic substrate)
Type: biochemical
Parameters: Frozen human placental tissue was thawed and homogenized in 10mM Tris-HCl, pH 7.4; from tissue; host or cells: human placenta
Settings: cathepsin D from human placental tissue, pH 3.7, 37°C
Method: A third non-cellular assay for determining in vitro aspartyl protease inhibitory activity is generally described in Jupp, R.A. et al., (1990) Biochem. J., 265:871-878 and Rao et al., J. Med. Chem. (1993), in press. The assay is carried out by incubating a test compound with a suitable aspartyl protease, such as cathepsin D, in the presence of a chromogenic substrate. The inhibition constant, Ki, value may then be determined by quantifying the competitive inhibition of the hydrolysis of the chromogenic substrate. A variety of chromogenic substrates that are useful for assaying aspartyl protease activity are discussed in Dunn, et al., (1986) Biochem. J., 237:899-906. A preferred chromogenic substrate for a cathepsin D assay is disclosed in Scarborough, P.E. et al., Protein Science, (1993), 2:264-276.
Concentrations of substrate solutions and cleavage products may be verified using amino acid analysis. The enzyme preparations may be titrated with a tightly binding inhibitor to quantitate the active concentration of the enzyme. Enzyme concentrations are typically in the range of from 1-6 nM. […]
A decrease in absorbance in the range of 284-324 nm may be monitored using a spectrophotometer. Absorbance readings are typically taken at various timepoints. […] Estimates of Ki may then be determined using the Dixon construction. […]

Sequence of Cathepsin D (P07339 65-412): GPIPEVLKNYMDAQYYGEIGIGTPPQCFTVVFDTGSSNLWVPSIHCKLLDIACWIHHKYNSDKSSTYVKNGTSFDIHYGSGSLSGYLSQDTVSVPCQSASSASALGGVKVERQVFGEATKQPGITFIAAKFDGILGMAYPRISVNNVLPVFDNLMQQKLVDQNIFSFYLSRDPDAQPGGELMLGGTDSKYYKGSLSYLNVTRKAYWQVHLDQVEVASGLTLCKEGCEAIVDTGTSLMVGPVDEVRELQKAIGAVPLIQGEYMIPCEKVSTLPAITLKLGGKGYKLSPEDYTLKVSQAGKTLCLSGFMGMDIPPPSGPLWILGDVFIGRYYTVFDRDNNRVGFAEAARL

- Ki: 0.39 ± 0.04 nM
Structure (SMILES): CC(=O)N[C@@H](Cc1ccc2ccccc2c1)C(=O)N[C@H](C(=O)N[C@@H](CC(C)C)[C@@H](O)CC(=O)N[C@@H](CC(C)C)C(=O)N[C@@H](Cc1ccc2ccccc2c1)C(N)=O)C(C)C [Example 36, Acetyl-β-naphthylalanine-valine-statine-leucine-β-naphthylalanine-amide] (Ac-[2Nal]V[Sta]L[2Nal]-NH2)

Reference: EP0652009A1, “Identification and use of protease inhibitors” (ELI LILLY AND COMPANY, priority 1993, dated 1995)
